According to publication PMC6364417, “Kinase inhibitor library screening identifies synergistic drug combinations effective in sensitive and resistant melanoma cells” (Journal of Experimental & Clinical Cancer Research : CR, 2019):

Tests used:
Assay in all cases: Kinase inhibitor library screening, PrestoBlue cell viability, 1 or 10 μM, 72 h
[1] = system: 501Mel cells (parental)
Summary of the method: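 Normalised to untreated controls, viability percentages came from PrestoBlue measured on a microplate reader following 72 h incubation with drug. Each line was assayed at least twice.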

[2] = system: 501Mel-GP cells (Dabrafenib-resistant)
[3] = system: 501Mel-XP cells (Vemurafenib-resistant)
[4] = system: A375 cells (parental)
[5] = system: A375-GP cells (Dabrafenib-resistant)
[6] = system: A375-XP cells (Vemurafenib-resistant)
[7] = system: IGR37 cells (parental)
[8] = system: IGR37-GP cells (Dabrafenib-resistant)
[9] = system: IGR37-XP cells (Vemurafenib-resistant)

COc1cc(N2CCC(N3CCN(C)CC3)CC2)ccc1Nc1ncc(Cl)c(Nc2ccccc2S(=O)(=O)C(C)C)n1 [TAE684 (NVP-TAE684)]
cell viability (kinase inhibitor library screening) ([1]; 501Mel Parental, 1μΜ, 72 h): 103.2% | cell viability (kinase inhibitor library screening) ([1]; 501Mel Parental, 10μΜ, 72 h): 0.331% | cell viability (kinase inhibitor library screening) ([2]; 501Mel GP, 1μΜ, 72 h): 112.8% | cell viability (kinase inhibitor library screening) ([2]; 501Mel GP, 10μΜ, 72 h): -0.0599% | cell viability (kinase inhibitor library screening) ([3]; 501Mel XP, 10μΜ, 72 h): -0.231% | cell viability (kinase inhibitor library screening) ([4]; A375 Parental, 10μΜ, 72 h): 8.8% | cell viability (kinase inhibitor library screening) ([4]; A375 Parental, 1μΜ, 72 h): 76.3% | cell viability (kinase inhibitor library screening) ([5]; A375 GP, 1μΜ, 72 h): 61.5% | cell viability (kinase inhibitor library screening) ([5]; A375 GP, 10μΜ, 72 h): 8.3% | cell viability (kinase inhibitor library screening) ([6]; A375 XP, 1μΜ, 72 h): 72.8% | cell viability (kinase inhibitor library screening) ([6]; A375 XP, 10μΜ, 72 h): 13.8% | cell viability (kinase inhibitor library screening) ([7]; IGR37 Parental, 1μΜ, 72 h): 99.2% | cell viability (kinase inhibitor library screening) ([7]; IGR37 Parental, 10μΜ, 72 h): 4.4% | cell viability (kinase inhibitor library screening) ([8]; IGR37 GP, 1μΜ, 72 h): 84.1% | cell viability (kinase inhibitor library screening) ([8]; IGR37 GP, 10μΜ, 72 h): 1.7% | cell viability (kinase inhibitor library screening) ([9]; IGR37 XP, 1μΜ, 72 h): 67.8% | cell viability (kinase inhibitor library screening) ([9]; IGR37 XP, 10μΜ, 72 h): 1.0%

COc1cc(Nc2ncc(F)c(Nc3ccc4c(n3)N(COP(=O)([O-])[O-])C(=O)C(C)(C)O4)n2)cc(OC)c1OC.[Na+].[Na+]
cell viability (kinase inhibitor library screening) ([1]; 501Mel Parental, 10μΜ, in %): 84.1 | cell viability (kinase inhibitor library screening) ([2]; 501Mel GP, 1μΜ, in %): 98.3 | cell viability (kinase inhibitor library screening) ([2]; 501Mel GP, 10μΜ, in %): 70.8 | cell viability (kinase inhibitor library screening) ([3]; 501Mel XP, 1μΜ, in %): 98.8 | cell viability (kinase inhibitor library screening) ([3]; 501Mel XP, 10μΜ, in %): 37.9 | cell viability (kinase inhibitor library screening) ([4]; A375 Parental, 10μΜ, in %): 56.1 | cell viability (kinase inhibitor library screening) ([5]; A375 GP, 1μΜ, in %): 95.3 | cell viability (kinase inhibitor library screening) ([5]; A375 GP, 10μΜ, in %): 57.6 | cell viability (kinase inhibitor library screening) ([6]; A375 XP, 10μΜ, in %): 70.0 | cell viability (kinase inhibitor library screening) ([7]; IGR37 Parental, 1μΜ, in %): 103.8 | cell viability (kinase inhibitor library screening) ([7]; IGR37 Parental, 10μΜ, in %): 87.6 | cell viability (kinase inhibitor library screening) ([8]; IGR37 GP, 1μΜ, in %): 89.3 | cell viability (kinase inhibitor library screening) ([8]; IGR37 GP, 10μΜ, in %): 37.8 | cell viability (kinase inhibitor library screening) ([9]; IGR37 XP, 1μΜ, in %): 94.1 | cell viability (kinase inhibitor library screening) ([9]; IGR37 XP, 10μΜ, in %): 20.4

Cn1c(=O)n(-c2ccc(C(C)(C)C#N)cc2)c2c3cc(-c4cnc5ccccc5c4)ccc3ncc21 [BEZ235 (NVP-BEZ235)]
Cell viability in kinase inhibitor library screening, 501Mel Parental, 1μΜ ([1]; 501Mel Parental, 1μΜ, 72 h, in %): 13.9 | Cell viability in kinase inhibitor library screening, 501Mel Parental, 10μΜ ([1]; 501Mel Parental, 10μΜ, 72 h, in %): 2.6 | Cell viability in kinase inhibitor library screening, 501Mel GP, 1μΜ ([2]; 501Mel GP, 1μΜ, 72 h, in %): 19.1 | Cell viability in kinase inhibitor library screening, 501Mel GP, 10μΜ ([2]; 501Mel GP, 10μΜ, 72 h, in %): 6.4 | Cell viability in kinase inhibitor library screening, 501Mel XP, 1μΜ ([3]; 501Mel XP, 1μΜ, 72 h, in %): 11.4 | Cell viability in kinase inhibitor library screening, 501Mel XP, 10μΜ ([3]; 501Mel XP, 10μΜ, 72 h, in %): 0.9 | Cell viability in kinase inhibitor library screening, A375 Parental, 10μΜ ([4]; A375 Parental, 10μΜ, 72 h): 10.9 | Cell viability in kinase inhibitor library screening, A375 Parental, 1μΜ ([4]; A375 Parental, 1μΜ, 72 h): 23.9 | Cell viability in kinase inhibitor library screening, A375 GP, 1μΜ ([5]; A375 GP, 1μΜ, 72 h): 22.0 | Cell viability in kinase inhibitor library screening, A375 GP, 10μΜ ([5]; A375 GP, 10μΜ, 72 h): 8.5 | Cell viability in kinase inhibitor library screening, A375 XP, 1μΜ ([6]; A375 XP, 1μΜ, 72 h): 20.9 | Cell viability in kinase inhibitor library screening, A375 XP, 10μΜ ([6]; A375 XP, 10μΜ, 72 h): 13.2 | Cell viability in kinase inhibitor library screening, IGR37 Parental, 1μΜ ([7]; IGR37 Parental, 1μΜ, 72 h, in %): 26.1 | Cell viability in kinase inhibitor library screening, IGR37 Parental, 10μΜ ([7]; IGR37 Parental, 10μΜ, 72 h, in %): 12.4 | Cell viability in kinase inhibitor library screening, IGR37 GP, 10μΜ ([8]; IGR37 GP, 10μΜ, 72 h): 6.1% | Cell viability in kinase inhibitor library screening, IGR37 GP, 1μΜ ([8]; IGR37 GP, 1μΜ, 72 h, in %): 53.8 | Cell viability in kinase inhibitor library screening, IGR37 XP, 10μΜ ([9]; IGR37 XP, 10μΜ, 72 h): 5.2% | Cell viability in kinase inhibitor library screening, IGR37 XP, 1μΜ ([9]; IGR37 XP, 1μΜ, 72 h, in %): 49.3

CN(C)C/C=C/C(=O)Nc1cc2c(Nc3ccc(F)c(Cl)c3)ncnc2cc1O[C@H]1CCOC1 [Afatinib (BIBW2992)]
viability at 1 µM ([1]; Homo sapiens, 72 h, read-out: cell viability, 501Mel Parental, 1μΜ): 102% | viability at 10 µM ([1]; Homo sapiens, 72 h, read-out: cell viability, 501Mel Parental, 10μΜ): 1.5% | viability at 1 µM ([2]; Homo sapiens, 72 h, read-out: cell viability, 501Mel GP, 1μΜ): 98.8% | viability at 10 µM ([2]; Homo sapiens, 72 h, read-out: cell viability, 501Mel GP, 10μΜ): 6.2% | viability at 1 µM ([3]; Homo sapiens, 72 h, read-out: cell viability, 501Mel XP, 1μΜ): 88.6% | viability at 10 µM ([3]; Homo sapiens, 72 h, read-out: cell viability, 501Mel XP, 10μΜ): -0.4% | viability at 1 µM ([4]; Homo sapiens, A-375, 72 h, read-out: cell viability, A375 Parental, 1μΜ): 100% | viability at 10 µM ([4]; Homo sapiens, A-375, 72 h, read-out: cell viability, A375 Parental, 10μΜ): 13.6% | viability at 1 µM ([5]; Homo sapiens, A-375, 72 h, read-out: cell viability, A375 GP, 1μΜ): 94.1% | viability at 10 µM ([5]; Homo sapiens, A-375, 72 h, read-out: cell viability, A375 GP, 10μΜ): 12.6% | viability at 1 µM ([6]; Homo sapiens, A-375, 72 h, read-out: cell viability, A375 XP, 1μΜ): 102% | viability at 10 µM ([6]; Homo sapiens, A-375, 72 h, read-out: cell viability, A375 XP, 10μΜ): 4.1% | viability at 1 µM ([7]; Homo sapiens, IGR-37, 72 h, read-out: cell viability, IGR37 Parental, 1μΜ): 103% | viability at 10 µM ([7]; Homo sapiens, IGR-37, 72 h, read-out: cell viability, IGR37 Parental, 10μΜ): 44.5% | viability at 1 µM ([8]; Homo sapiens, IGR-37, 72 h, read-out: cell viability, IGR37 GP, 1μΜ): 96.9% | viability at 10 µM ([8]; Homo sapiens, IGR-37, 72 h, read-out: cell viability, IGR37 GP, 10μΜ): 20.9% | viability at 1 µM ([9]; Homo sapiens, IGR-37, 72 h, read-out: cell viability, IGR37 XP, 1μΜ): 94.7% | viability at 10 µM ([9]; Homo sapiens, IGR-37, 72 h, read-out: cell viability, IGR37 XP, 10μΜ): 10%
